Assay results published in a melting point compilation (Tetko et al.).

Structure (SMILES) | melting point
COc1ccc(C=CC(=O)C=Cc2ccc(OC)cc2)cc1 | 129 °C
O=C(Oc1ccc(Cl)cc1)c1ccc(C(=O)Oc2ccc(Cl)cc2)cc1 | 197 °C
O=S(=O)(c1ccccc1)c1ccsc1 | 116 °C
O=S(=O)(Cl)c1sccc1Br | 39 to 41.5 °C
CN1CCN(C)C(C(=O)NN)C1 (configuration not stated) | 113 °C
O=C(O)C1(C(=O)O)CC1 | 134 to 138 °C
O=C(O)C1CN(C(c2ccccc2)c2ccccc2)C1 | 178 to 180 °C
CC(C)C(C)C(=O)O (configuration not stated) | -1.5 °C
CCOC(=O)NNC(=O)NC1CCCCC1 | 115 to 117 °C
O=C=NCCCCCCN=C=O | -67 °C
CC(=O)c1ccn(S(=O)(=O)c2ccccc2)c1 | 89 to 92 °C
C=C(C)C(=O)Oc1ccc(C(C)(C)c2ccc(OC(=O)C(=C)C)cc2)cc1 | 70 to 76 °C
NNC(=O)C1SCCN1S(=O)(=O)c1ccc(Cl)cc1 (configuration not stated) | 200 to 201 °C
CCC1(O)CC2CN(CCc3c([nH]c4ccccc34)C(C(=O)OC)(c3cc4c(cc3OC)N(C)C3C(O)(C(=O)OC)C(OC(C)=O)C5(CC)C=CCN6CCC43C65)C2)C1 (configuration not stated) | 267 °C
CC12CCC3C(CC=C4CC(O)CCC43C)C1CCC2=O (single isomer, unassigned; (+)) | 146 to 151 °C
CCOC(=O)CCN(Cc1ccccc1)SN(C)C(=O)ON=C(C)SC | 47 °C
BrCc1ccc(I)cc1 | 80 °C
CC(C)(C)OC(=O)NC(CC(N)=O)C(=O)O (configuration not stated) | 179 to 182 °C
OCCCCC#CC#CCCCCO | 50 °C
CC1C(=O)C23C4CC5C(C)(CO)CCCC56COC(CC1C2OC(C)(C)O4)C63 (configuration not stated) | 220 °C
COC(=O)C1(C(=O)OC)Cc2ccc(OC)cc2C(=O)O1 | 142 °C
BrCCC1CCCCC1 | -57 °C
O=C(c1ccccc1)c1cccc(O)c1 | 117 to 119 °C
CC1(C)CC(N)CC(C)(CN)C1 (configuration not stated) | 10 °C
CC12CCC3C(C(=O)CC4CC(=O)CCC43C)C1CCC2=O (configuration not stated) | 229 to 234 °C
Clc1cc(Cl)c(-c2c(Cl)cc(Cl)c(Cl)c2Cl)cc1Cl | 83 °C

Structure (SMILES) | melting point
C=C(C)C(=O)O | 16 °C
CN(C)C1(C#N)CCOCC1 | 51 to 52 °C
COC(=O)[C@H]1C[C@H](NC(=O)OC(C)(C)C)[C@@H](O)C1 | 71.2 °C
NC(Cc1ccc(N(CCCl)CCCl)cc1)C(=O)O (configuration not stated) | 182 °C
CCCCCBr | -92.7 °C
CC(CCc1ccccc1)NC(C)C(O)c1ccc(O)cc1 (configuration not stated) | 112 °C
COC(=O)C1(S(=O)(=O)c2ccccc2)CCC1 | 108 °C
CC(=O)Nc1ccccc1/C=C/c1cc(C)c([N+](=O)[O-])cc1[N+](=O)[O-] | 252 °C
CCCCCCCCCCCCCCCC(=O)OC1CCC2(C)C(=CCC3C2CCC2(C)C(C(C)CCCC(C)C)CCC32)C1 (configuration not stated) | 75 to 77 °C
c1ccc(Nc2ccc3ccccc3c2)cc1 | 108 °C
C1COCCOCCOCCOCCOCCN1 | 48 °C
O=C(Nc1ccccc1)C(C(F)(F)F)C(F)(F)F | 165 to 167 °C
CN1C2CCCC1CC(=O)C2 | 63 to 65 °C
COc1cccc(C(=O)C(=O)c2cccc(OC)c2)c1 | 82 °C
COc1ccc2cc1Oc1ccc(cc1)CC1c3cc(c(OC)cc3CCN1C)Oc1c(OC)c(OC)cc3c1C(C2)N(C)CC3 (configuration not stated) | 218 °C
O/N=C(\Cc1ccccc1)c1ccc2ccccc2c1 | 128 to 130 °C
O=C(c1ccc2ccccc2c1)c1noc(-c2ccc3ccccc3c2)c1S(=O)(=O)c1ccccc1 | 120 °C
c1ccc2c3c([nH]c2c1)CCCCCC3 | 74 °C
CCCCOC(N)=O | 51 to 56 °C
O=C(/C=C/c1ccc(-c2ccc(Br)cc2)o1)c1ccccc1 | 141 to 142 °C
CC12CCC3C(CC=C4CC(Cl)CCC43C)C1CCC2=O (configuration not stated) | 157 °C
O=C1OC(c2ccc([N+](=O)[O-])cc2)Cc2ccccc21 (configuration not stated) | 184 °C
CC(C)c1ccccc1OS(=O)(=O)c1ccc([N+](=O)[O-])cc1 | 98 to 100 °C
COc1ccc(NC(=S)NN=Cc2c(-c3ccc(Cl)cc3)[nH]c3ccccc23)cc1 | 230 to 232 °C
O=C1OC(=O)C2=C1CC1=C(CC=CC1)C2 | 204 °C
NC(=O)C=Cc1ccccc1 | 149 °C

Second part, the compound after the results:

melting point | Structure (SMILES)
195 °C | NC(CCC(=O)NC(CS)C(=O)NCC(=O)O)C(=O)O (configuration not stated)
193 to 196 °C | CSc1nc(N)nc(-c2ccccn2)n1
61 °C | COc1cc(F)ccc1C=O
74 °C | CC(=O)n1c(C)c(C)c2ccccc21
214 to 216 °C | CC1=C(C(=O)OCc2ccccc2)C(c2ccc(O)c(O)c2)NC(=O)N1 (configuration not stated)
98 to 100 °C | Cc1cc(C(F)(F)F)n2nc(N)c(/N=N/c3c(Br)cc(Br)cc3Br)c2n1
118 °C | Cc1cc(C)c(C)c(O)c1C
237 to 239 °C | CCOC(=O)C1=NN(c2ccc([N+](=O)[O-])cc2)C2(C)CC3(c4ccccc4)N(c4ccc([N+](=O)[O-])cc4)N=C(C(=O)OCC)N3c3ccccc3N12 (configuration not stated)
157 to 161 °C | CSCCC(NC(=O)c1cccnc1SC)C(=O)O (configuration not stated)
73 °C | NNC(=O)c1ccccc1F
126 to 130 °C | CON=C(C(=O)Sc1nc2ccccc2s1)c1csc(N)n1
97 °C | Nc1ncc(Cl)cc1I
91 to 92 °C | CCOC(=O)c1cnn(-c2ccc(N)cc2)c1C
64 to 66 °C | CCCCOc1ccc(N)c([N+](=O)[O-])c1
246 to 248 °C | CC(=O)c1c(C)nc2cc3nc(C)c(C(C)=O)c(C)c3cc2c1C
145 to 147 °C | CCCSc1nnc(S)s1
151 to 153 °C | Cc1n[nH]c(SCc2ccc(Cl)cc2)n1
12.5 °C | CCCCCCCC=O
35 °C | CC(=O)c1ccc(C2CC2(Cl)Cl)cc1 (configuration not stated)
305 to 308 °C | O=c1[nH]c2scc(-c3ccccc3)c2c(=O)n1-c1ccccc1
100 °C | Cc1nc(-c2cnccn2)sc1C(=O)CBr
167 to 168 °C | N#Cc1cc([N+](=O)[O-])ccc1Sc1ccc(Cl)cc1
126 to 128 °C | NCCNc1ccc([N+](=O)[O-])cn1
79 °C | COc1cc(O)ccc1Br
135 °C | Cc1cc(N)ccc1[N+](=O)[O-]

melting point | Structure (SMILES)
37 °C | CCN(CCO)c1ccccc1
45 to 46 °C | Fc1ncccc1I
157 to 158 °C | C/C(CCc1oc2c(Br)cc(Br)cc2c1-c1ccc(C)o1)=N/O
44 °C | CCN(CC)CC(=O)Nc1c(C)cc(C)cc1C
47 °C | N#Cc1ccc(C(F)(F)F)c(F)c1
195 to 198 °C | O=C(O)c1cscc1Sc1ccc(Cl)cc1
29 °C | Cc1cc(C)c(I)c(C)c1
-48 °C | Fc1cc(F)c(F)c(F)c1
85 °C | Cn1ccc2c1CCCC2=O
214 °C | CCOC(=O)c1cc(C)[nH]c(=S)c1C#N
119 to 121 °C | Cc1ccc2nc(C(F)(F)F)cc(Cl)c2c1[N+](=O)[O-]
52 °C | CN(C)c1cccc2c(S(=O)(=O)F)cccc12
176 °C | COc1nc2c(c(=O)n(C)c(=O)n2C)n1C
137 to 138 °C | Cc1csc2ncnc(Cl)c12
123 to 124 °C | Brc1ccc2[nH]ncc2c1
37 °C | c1ccc(SCSc2ccccc2)cc1
143 °C | Cc1ccc(-c2ccc(/C=C/C(=O)c3ccc(C)o3)o2)cc1
165 °C | COc1cc(C2Nn3c(nnc3-c3cccc([N+](=O)[O-])c3)S2)ccc1O (configuration not stated)
60 °C | CC(C)(C)Oc1ncc(Br)c(OC(C)(C)C)n1
79 °C | Clc1ncc(Br)cn1
234 °C | Cc1c(Cl)cccc1Nc1ncccc1C(=O)O
25 °C | Cc1cc(C)ncn1
66 °C | CCc1ccc(N2C(=O)C=CC2=O)cc1
176 °C | CCN(CC)CC(=O)OCC(=O)C1(O)CCC2C3CCC4=CC(=O)C=CC4(C)C3C(O)CC21C (configuration not stated)
156 to 157 °C | CCOC(=O)c1cn2nc(Cl)ccc2n1

melting point | Structure (SMILES)
190 °C | c1ccc2c(N=Nc3cccc4ccccc34)cccc2c1
120 °C | COC(=O)c1sc2c(c1N)CSc1ccc(Cl)cc1-2
143 to 145 °C | CC(=O)Nc1ccc(S(=O)(=O)Cl)cc1Cl
11 °C | C[Si](C)(C)C#N
134 to 137 °C | Cc1ccc(C(=O)C=Cc2cccc([N+](=O)[O-])c2)cc1
101 °C | NS(=O)(=O)c1ccc(SCCCCO)cc1
194 °C | CCOC(=O)NNC(=O)Nc1ccc(Cl)cc1
241 to 243 °C | Nc1c(I)cc(I)cc1C(=O)O
182 to 183 °C | Cc1oc(-c2ccccc2)nc1C(=O)O
37 to 40 °C | Cc1ccc(Cl)c(N)c1Cl
76 to 78 °C | CC(Oc1ccc(OC(F)(F)F)cc1)C(=O)O (configuration not stated)
216 to 218 °C | Nc1nc(-c2ccc(Br)cc2)cc(C(F)(F)F)n1
187 to 191 °C | CC1(C)C(=O)N(Br)C(=O)N1Br
52 °C | CCCCCCCCCCCCCCCCCC(=O)Oc1ccccc1
87 °C | COc1ccccc1CCC(=O)O
165 to 168 °C | N#Cc1cc(Cl)ccc1O
82 °C | CC(=O)OC(C(=O)c1ccccc1)c1ccccc1 (configuration not stated)
56.9 °C | CC1(C)CC(=O)[C@]2(C)C=C[C@H]1N(c1ccccc1)O2
250 °C | Cc1ccc2cc(C(=O)O)ccc2n1
30 °C | Cc1nc(C)c(C=O)s1
67 to 68 °C | O=Cc1ccccc1CN1CCOCC1
244 °C | CNC1CCC(c2ccc(Cl)c(Cl)c2)c2ccccc21 (configuration not stated)
87 °C | O=[N+]([O-])c1c(Cl)ccc(O)c1Cl
90 to 91 °C | CCOC(=O)c1c(N)sc(C)c1C
56 to 59 °C | OCc1cccc(Cn2cncn2)c1
